The record followed here is patent US9265253B2, “Use of macrocyclic picolinamides as fungicides” (DOW AGROSCIENCES LLC, priority 2013, dated 2016).

Each structure is given as a SMILES string. Like-named read-outs stand apart in the source and are kept apart here.

Holding throughout (format): in vivo
Assay [1] concerns Mycosphaerella graminicola; Anamorph: Septoria tritici. The assay is described as follows: Leaf Blotch of Wheat (SEPTTR) disease control. As to conditions: for pest or weed control at 121.5 g/ha / pest or weed control at 100 ppm: Zymoseptoria tritici. Summed up:
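Seedlings of variety Yuma grew until the first leaf fully emerged. Fungicide solution (acetone/water with Triton X-100) was sprayed to run-off; plants were inoculated with S. tritici spores before or after spraying, held one day dark and two to three days lit at 100% humidity, then kept at 20° C.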

Assay [2] deals with Puccinia triticina; Synonym: Puccinia recondite f. Sp. Tritici. The assay is described as follows: Wheat Brown Rust (PUCCRT) disease control. As to conditions: for pest or weed control at 121.5 g/ha / pest or weed control at 100 ppm: Puccinia triticina, topical. An outline of the steps: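 Brown rust on first-leaf Yuma wheat: spore inoculation before or after spray application (acetone/Triton X-100 solution, or EC with Trycol in track spray), overnight 100% RH at 22 °C, disease developed at 24 °C. Severity scored 0–100% and converted to percent control against untreated.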

The subject of another assay is Erysiphe cichoracearum. Description: Powdery Mildew of Cucumber (ERYSCI) disease control. As to conditions: 1 Day Protectant; for pest or weed control at 100 ppm: Golovinomyces cichoracearum, topical, 24 h, read-out: Disease Control ERYSCI 1 DP. The method, then: Technical grades of materials were dissolved in acetone, which were then mixed with nine volumes of water containing 110 ppm Triton X-100. The fungicide solutions were applied onto wheat seedlings using an automated booth sprayer to run-off. All sprayed plants were allowed to air dry prior to further handling. All fungicides were evaluated using the aforementioned method for their activity vs. all target diseases. Wheat leaf blotch and brown rust activity were also evaluated using track spray applications, in which case the fungicides were formulated as EC formulations, containing 0.1% Trycol 5941 in the spray solutions. Wheat plants (variety Yuma) were grown from seed in a greenhouse in 50% mineral soil/50% soil-less Metro mix until the first leaf was fully emerged, with 7-10 seedlings per pot. These plants were inoculated with an aqueous spore suspension of Septoria tritici either prior to or after fungicide treatments. After inoculation the plants were kept in 100% relative humidity (one day in a dark dew chamber followed by two to three days in a lighted dew chamber at 20° C.) to permit spores to germinate and infect the leaf. The plants were then transferred to a greenhouse set at 20° C. for disease to develop. When disease symptoms were fully expressed on the 1st leaves of untreated plants, infection levels were assessed on a scale of 0 to 100 percent disease severity. Percent disease control was calculated using the ratio of disease severity on treated plants relative to untreated plants. Cucumber seedlings (variety Bush Pickle) were grown in soil-less Metro mix, with one plant per pot, and used in the test when 12 to 14 days old. Plants were inoculated with a spore suspension 24 hr following fungicide treatments. After inoculation the plants remained in the greenhouse set at 20° C. until disease was fully expressed. Fungicide formulation, application and disease assessment on the sprayed leaves followed the procedures as described in the Example A.

In a further assay the test system is Alternaria solani. The assay is described as follows: Tomato Early Blight (ALTESO) disease control. As to conditions: 1 Day Protectant; for pest or weed control at 100 ppm: Alternaria solani, topical, 24 h, read-out: Disease Control ALTESO 1 DP. The method, then:
Technical grades of materials were dissolved in acetone, which were then mixed with nine volumes of water containing 110 ppm Triton X-100. The fungicide solutions were applied onto wheat seedlings using an automated booth sprayer to run-off. All sprayed plants were allowed to air dry prior to further handling. All fungicides were evaluated using the aforementioned method for their activity vs. all target diseases. Wheat leaf blotch and brown rust activity were also evaluated using track spray applications, in which case the fungicides were formulated as EC formulations, containing 0.1% Trycol 5941 in the spray solutions. Wheat plants (variety Yuma) were grown from seed in a greenhouse in 50% mineral soil/50% soil-less Metro mix until the first leaf was fully emerged, with 7-10 seedlings per pot. These plants were inoculated with an aqueous spore suspension of Septoria tritici either prior to or after fungicide treatments. After inoculation the plants were kept in 100% relative humidity (one day in a dark dew chamber followed by two to three days in a lighted dew chamber at 20° C.) to permit spores to germinate and infect the leaf. The plants were then transferred to a greenhouse set at 20° C. for disease to develop. When disease symptoms were fully expressed on the 1st leaves of untreated plants, infection levels were assessed on a scale of 0 to 100 percent disease severity. Percent disease control was calculated using the ratio of disease severity on treated plants relative to untreated plants. Tomato plants (variety Outdoor girl) were propagated in soil-less Metro mix, with each pot having one plant, and used when 12 to 14 days old. Test plants were inoculated with an aqueous spore suspension of Alternaria solani 24 hr after fungicide treatments. After inoculation the plants were kept in 100% relative humidity (one day in a dark dew chamber followed by two to three days in a lighted dew chamber at 20° C.) to permit spores to germinate and infect the leaf. The plants were then transferred to a growth room at 22° C. for disease to develop. Fungicide formulation, application and disease assessment on the sprayed leaves followed the procedures as described in the Example A.

The mark [3] stands for this setting: 24 h, 1 Day Protectant, rate 121.5 g/H, read-out: SEPTTR 1 DP disease control.
The mark [4] stands for this setting: 72 h, 3 Day Curative, rate 121.5 g/H, read-out: SEPTTR 3 DC disease control.
[5] abbreviates: 24 h, 1 Day Protectant, rate 121.5 g/H, read-out: PUCCRT 1 DP disease control.
The mark [6] stands for this setting: 72 h, 3 Day Curative, rate 121.5 g/H, read-out: PUCCRT 3 DC disease control.
Setting [7] is: 24 h, 1 Day Protectant, rate 100 ppm, read-out: SEPTTR 1 DP disease control.
Setting [8] is: 72 h, 3 Day Curative, rate 100 ppm, read-out: SEPTTR 3 DC disease control.
Where [9] appears, read: 24 h, 1 Day Protectant, rate 100 ppm, read-out: PUCCRT 1 DP disease control.
[10] abbreviates: 72 h, 3 Day Curative, rate 100 ppm, read-out: PUCCRT 3 DC disease control.
[11] abbreviates: 1 Day Protectant, rate 121.5 g/H.

On to `COc1ccnc(C(=O)N[C@H]2CCC[C@H](Cc3ccc(F)cc3F)[C@@H](OCC(C)C)[C@H](C)OC2=O)c1OCOC(C)=O` [Compound F145], for which the pest or weed control at 121.5 g/ha in assay [1] (setting [3]), in assay [1] (setting [4]), in assay [2] (setting [5]) and in assay [2] (setting [6]) was 80 to 100% in each case. Moreover, the pest or weed control at 100 ppm with Erysiphe cichoracearum and in the assay with Alternaria solani was 80 to 100% in each case.
For `CCCO[C@@H]1[C@@H](Cc2ccc(F)cc2)CCC[C@H](NC(=O)c2nccc(OC)c2OCOC(C)=O)C(=O)O[C@H]1C` [Compound F101], the pest or weed control at 100 ppm (in assay [1] (setting [7]); in assay [1] (setting [8]); in assay [2] (setting [9]); in assay [2] (setting [10]); with Erysiphe cichoracearum; with Alternaria solani) was 80 to 100% in each case. In addition, the pest or weed control at 121.5 g/ha in assay [1] (setting [3]), in assay [1] (setting [4]), in assay [2] (setting [5]) and in assay [2] (setting [6]) was 80 to 100% throughout.
Regarding `CCCO[C@@H]1[C@@H](CCC(C)C)CCC[C@H](NC(=O)c2nccc(OC)c2OCOC(=O)COCC)C(=O)O[C@H]1C` [Compound F161], the pest or weed control at 100 ppm (in assay [1] (setting [7]); in assay [1] (setting [8]); in assay [2] (setting [9]); in assay [2] (setting [10]); in the assay on Erysiphe cichoracearum; in the assay on Alternaria solani) was 80 to 100% in each case. The pest or weed control at 121.5 g/ha in assay [1] (setting [3]), in assay [1] (setting [4]), in assay [2] (setting [5]) and in assay [2] (setting [6]) was 80 to 100% each time.
Regarding `COc1ccnc(C(=O)N[C@H]2CCC[C@H](Cc3ccccc3)[C@@H](OCC3CC3)[C@H](C)OC2=O)c1OCOC(=O)C(C)C` [Compound F152], the pest or weed control at 100 ppm (in assay [1] (setting [7]); in assay [1] (setting [8]); in assay [2] (setting [9]); in assay [2] (setting [10]); in the assay with Erysiphe cichoracearum; with Alternaria solani) was 80 to 100% each time. Besides, the pest or weed control at 121.5 g/ha in assay [1] (setting [3]), in assay [1] (setting [4]), in assay [2] (setting [5]) and in assay [2] (setting [6]) was 80 to 100% each time.
For `COc1ccnc(C(=O)N[C@H]2CCC[C@H](Cc3ccc(F)cc3)[C@@H](OCC3CC3)[C@H](C)OC2=O)c1OCOC(C)=O` [Compound F98], the “SEPTTR 1 DP disease control” value is “A (80-100)” in assay [1] (1 Day Protectant, rate 100 ppm) and “A (80-100)” in assay [1] (setting [11]). The “SEPTTR 3 DC disease control” value in assay [1] (3 Day Curative, rate 100 ppm) was “A (80-100)”; in assay [1] (3 Day Curative, rate 121.5 g/H), “A (80-100)”. The “PUCCRT 1 DP disease control” value in assay [2] (1 Day Protectant, rate 100 ppm) was “A (80-100)”; in assay [2] (setting [11]), “A (80-100)”. Further, the “PUCCRT 3 DC disease control” value in assay [2] (3 Day Curative, rate 100 ppm) is “A (80-100)”; in assay [2] (3 Day Curative, rate 121.5 g/H) it was “A (80-100)”. In addition, the “Disease Control ERYSCI 1 DP” value with Erysiphe cichoracearum (100 ppm) is “A (80-100)”. The “Disease Control ALTESO 1 DP” value with Alternaria solani (100 ppm) is “A (80-100)”.
On to `CCCO[C@@H]1[C@@H](Cc2ccccc2)CCC[C@H](NC(=O)c2nccc(OC)c2OCOC(C)=O)C(=O)O[C@H]1C` [Compound F109], for which the pest or weed control at 100 ppm (in assay [1] (setting [7]); in assay [1] (setting [8]); in assay [2] (setting [9]); in assay [2] (setting [10]); in the assay with Erysiphe cichoracearum; in the assay on Alternaria solani) was 80 to 100% throughout. For the same compound, the pest or weed control at 121.5 g/ha in assay [1] (setting [3]), in assay [1] (setting [4]), in assay [2] (setting [5]) and in assay [2] (setting [6]) was 80 to 100% in each case.
With `CCOCC(=O)OCOc1c(OC)ccnc1C(=O)N[C@H]1CCC[C@H](Cc2ccccc2)[C@@H](OCC(C)C)[C@H](C)OC1=O` [Compound F172], the pest or weed control at 100 ppm (in assay [1] (setting [7]); in assay [1] (setting [8]); in assay [2] (setting [9]); in assay [2] (setting [10]); in the assay on Erysiphe cichoracearum; in the assay on Alternaria solani) was 80 to 100% throughout. The pest or weed control at 121.5 g/ha in assay [1] (setting [3]), in assay [1] (setting [4]), in assay [2] (setting [5]) and in assay [2] (setting [6]) was 80 to 100% in each case.
For `CCCO[C@@H]1[C@@H](Cc2ccc(OC)cc2)CCC[C@H](NC(=O)c2nccc(OC)c2OCOC(C)=O)C(=O)O[C@H]1C` [Compound F119], the pest or weed control at 100 ppm in assay [1] (setting [7]) lay in the range of 80 to 100%; in assay [1] (setting [8]) it was 80 to 100%; in assay [2] (setting [9]), 80 to 100%; in assay [2] (setting [10]) it was 80 to 100%; in the assay with Erysiphe cichoracearum it was 80 to 100%; in the assay on Alternaria solani, 0 to 80%. Moreover, the pest or weed control at 121.5 g/ha in assay [1] (setting [3]), in assay [1] (setting [4]), in assay [2] (setting [5]) and in assay [2] (setting [6]) was 80 to 100% in each case.
For the compound `CCOCC(=O)OCOc1c(OC)ccnc1C(=O)N[C@H]1CCC[C@H](CC2CCCCC2)[C@@H](OCC(C)C)[C@H](C)OC1=O` [Compound F175], the pest or weed control at 100 ppm in assay [1] (setting [7]) lay within 80 to 100%; in assay [1] (setting [8]) it was 80 to 100%; in assay [2] (setting [9]), 80 to 100%; in assay [2] (setting [10]) it was 80 to 100%; in the assay with Erysiphe cichoracearum, 0 to 80%; in the assay on Alternaria solani it was 80 to 100%. Besides, the pest or weed control at 121.5 g/ha in assay [1] (setting [3]) is 80 to 100%; in assay [1] (setting [4]), 0 to 80%; in assay [2] (setting [5]), 80 to 100%; in assay [2] (setting [6]), 0 to 80%.
As for `CCOCC(=O)OCOc1c(OC)ccnc1C(=O)N[C@H]1CCC[C@H](Cc2ccccc2)[C@@H](OCC2CC2)[C@H](C)OC1=O` [Compound F173], the pest or weed control at 100 ppm (in assay [1] (setting [7]); in assay [1] (setting [8]); in assay [2] (setting [9]); in assay [2] (setting [10]); in the assay with Erysiphe cichoracearum; in the assay with Alternaria solani) was 80 to 100% each time. Besides, the pest or weed control at 121.5 g/ha in assay [1] (setting [3]), in assay [1] (setting [4]), in assay [2] (setting [5]) and in assay [2] (setting [6]) was 80 to 100% each time.
